From article PMC8014548, “Applying the CiPA approach to evaluate cardiac proarrhythmia risk of some antimalarials used off‐label in the first wave of COVID‐19” (Clinical and Translational Science, 2021) come the findings set out here.

One assay concerns the target T1, NaV1.5 (Homo sapiens, UniProt Q14524).
T1 construct: gene SCN5A; stably expressed in CHO cells; no beta subunit mentioned
Briefly: automated patch clamp (SyncroPatch […]PE). The class given is cell-based. The conditions noted are these: read-out: NaV1.5 peak. (In general: In patch-clamp work, channel activity is measured electrically.)

The next assay concerns the target T2, hERG (Homo sapiens, UniProt Q12809).
T2 construct: gene KCNH2; stably expressed in CHO cells; IKr current; homotetramer
Briefly: automated patch clamp (SyncroPatch […]PE). The class given is cell-based.

Assay [1] has as its target T3, CaV1.2 (coexpressed with β2/α2δ1) (Homo sapiens, UniProt Q13936).
T3 construct: gene CACNA1C; stably expressed in CHO cells with beta2 and alpha2delta1; with Voltage-dependent L-type calcium channel subunit beta-2; Voltage-dependent calcium channel subunit alpha-2/delta-1
Nature of the assay: automated patch clamp (SyncroPatch […]PE). In kind it is cell-based. The conditions noted are these: read-out: CaV1.2 peak.

The next assay has as its target T4, KV7.1/minK (Homo sapiens, UniProt P51787).
T4 construct: gene KCNQ1; stably expressed in CHO cells; IKs current
Nature of the assay: automated patch clamp (SyncroPatch […]PE). The class given is cell-based.

The next assay deals with T5, Kir2.1 (Homo sapiens, UniProt P63252).
T5 construct: gene KCNJ2; stably expressed in CHO cells; IK1 current; homotetramer
T5 sequence (P63252 1-427): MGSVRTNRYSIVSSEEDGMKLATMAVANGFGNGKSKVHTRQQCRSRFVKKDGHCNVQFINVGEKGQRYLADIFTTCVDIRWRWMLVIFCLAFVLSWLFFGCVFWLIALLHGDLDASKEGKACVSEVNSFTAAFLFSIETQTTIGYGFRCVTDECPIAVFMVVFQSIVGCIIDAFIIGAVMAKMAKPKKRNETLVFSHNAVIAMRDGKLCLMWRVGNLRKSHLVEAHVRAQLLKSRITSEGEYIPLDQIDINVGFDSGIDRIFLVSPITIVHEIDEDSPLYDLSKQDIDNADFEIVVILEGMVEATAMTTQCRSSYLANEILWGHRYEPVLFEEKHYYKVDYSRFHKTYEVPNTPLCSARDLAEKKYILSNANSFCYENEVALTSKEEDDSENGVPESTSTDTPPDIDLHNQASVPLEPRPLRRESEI
Nature of the assay: automated patch clamp (QPatch). In kind it is cell-based. The text has this:
automated patch clamp (QPatch) on Kir2.1

Another assay has as its target T6, HCN4 (Homo sapiens, UniProt Q9Y3Q4).
T6 construct: stably expressed in HEK 293 cells; If current; homotetramer
T6 sequence (Q9Y3Q4 1-1203): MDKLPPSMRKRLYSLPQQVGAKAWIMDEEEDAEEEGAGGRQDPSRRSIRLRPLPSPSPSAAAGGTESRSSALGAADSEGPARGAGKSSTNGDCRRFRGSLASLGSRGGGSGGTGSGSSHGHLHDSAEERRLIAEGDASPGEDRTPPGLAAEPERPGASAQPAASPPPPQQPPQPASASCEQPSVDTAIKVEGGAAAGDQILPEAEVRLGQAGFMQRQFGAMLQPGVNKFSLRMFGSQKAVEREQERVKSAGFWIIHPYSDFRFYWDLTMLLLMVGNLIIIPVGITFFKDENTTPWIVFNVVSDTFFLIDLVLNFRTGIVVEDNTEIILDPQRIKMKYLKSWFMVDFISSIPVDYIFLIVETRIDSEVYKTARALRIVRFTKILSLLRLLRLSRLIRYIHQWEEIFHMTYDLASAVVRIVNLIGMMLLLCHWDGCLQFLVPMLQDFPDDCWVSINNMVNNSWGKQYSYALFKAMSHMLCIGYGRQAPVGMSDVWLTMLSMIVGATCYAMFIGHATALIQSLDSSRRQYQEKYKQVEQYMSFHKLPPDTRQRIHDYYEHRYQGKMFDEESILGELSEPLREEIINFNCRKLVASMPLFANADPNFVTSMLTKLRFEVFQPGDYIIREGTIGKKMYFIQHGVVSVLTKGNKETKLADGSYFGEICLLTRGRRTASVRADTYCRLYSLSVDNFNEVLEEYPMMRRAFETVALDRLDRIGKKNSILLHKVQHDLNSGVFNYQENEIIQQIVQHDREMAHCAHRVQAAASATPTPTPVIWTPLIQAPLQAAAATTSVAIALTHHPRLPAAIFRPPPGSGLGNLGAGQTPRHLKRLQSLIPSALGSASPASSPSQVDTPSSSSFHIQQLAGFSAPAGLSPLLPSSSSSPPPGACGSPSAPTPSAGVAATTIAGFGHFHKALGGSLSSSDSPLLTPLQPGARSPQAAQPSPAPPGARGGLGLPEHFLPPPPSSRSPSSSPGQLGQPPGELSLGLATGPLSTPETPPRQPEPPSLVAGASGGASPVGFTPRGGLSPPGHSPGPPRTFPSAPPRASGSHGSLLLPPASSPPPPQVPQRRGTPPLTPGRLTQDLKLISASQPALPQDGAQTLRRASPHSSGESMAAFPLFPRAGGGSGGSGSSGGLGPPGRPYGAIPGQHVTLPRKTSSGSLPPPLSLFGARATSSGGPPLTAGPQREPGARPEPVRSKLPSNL
Nature of the assay: automated patch clamp (SyncroPatch […]PE). The class given is cell-based.

Assay [2] can be described thus: automated patch clamp (SyncroPatch […]PE). In kind it is cell-based, Homo sapiens. The conditions noted are these: read-out: CaV1.2 ramp.
Assay [3] is described as follows: automated patch clamp (SyncroPatch […]PE). The conditions noted are these: read-out: CaV1.2 ramp. In kind it is cell-based, Homo sapiens. This is another data set of the same source.

Like-named read-outs stand apart in the source and are kept apart here.

T1 sequence (Q14524 whole entry): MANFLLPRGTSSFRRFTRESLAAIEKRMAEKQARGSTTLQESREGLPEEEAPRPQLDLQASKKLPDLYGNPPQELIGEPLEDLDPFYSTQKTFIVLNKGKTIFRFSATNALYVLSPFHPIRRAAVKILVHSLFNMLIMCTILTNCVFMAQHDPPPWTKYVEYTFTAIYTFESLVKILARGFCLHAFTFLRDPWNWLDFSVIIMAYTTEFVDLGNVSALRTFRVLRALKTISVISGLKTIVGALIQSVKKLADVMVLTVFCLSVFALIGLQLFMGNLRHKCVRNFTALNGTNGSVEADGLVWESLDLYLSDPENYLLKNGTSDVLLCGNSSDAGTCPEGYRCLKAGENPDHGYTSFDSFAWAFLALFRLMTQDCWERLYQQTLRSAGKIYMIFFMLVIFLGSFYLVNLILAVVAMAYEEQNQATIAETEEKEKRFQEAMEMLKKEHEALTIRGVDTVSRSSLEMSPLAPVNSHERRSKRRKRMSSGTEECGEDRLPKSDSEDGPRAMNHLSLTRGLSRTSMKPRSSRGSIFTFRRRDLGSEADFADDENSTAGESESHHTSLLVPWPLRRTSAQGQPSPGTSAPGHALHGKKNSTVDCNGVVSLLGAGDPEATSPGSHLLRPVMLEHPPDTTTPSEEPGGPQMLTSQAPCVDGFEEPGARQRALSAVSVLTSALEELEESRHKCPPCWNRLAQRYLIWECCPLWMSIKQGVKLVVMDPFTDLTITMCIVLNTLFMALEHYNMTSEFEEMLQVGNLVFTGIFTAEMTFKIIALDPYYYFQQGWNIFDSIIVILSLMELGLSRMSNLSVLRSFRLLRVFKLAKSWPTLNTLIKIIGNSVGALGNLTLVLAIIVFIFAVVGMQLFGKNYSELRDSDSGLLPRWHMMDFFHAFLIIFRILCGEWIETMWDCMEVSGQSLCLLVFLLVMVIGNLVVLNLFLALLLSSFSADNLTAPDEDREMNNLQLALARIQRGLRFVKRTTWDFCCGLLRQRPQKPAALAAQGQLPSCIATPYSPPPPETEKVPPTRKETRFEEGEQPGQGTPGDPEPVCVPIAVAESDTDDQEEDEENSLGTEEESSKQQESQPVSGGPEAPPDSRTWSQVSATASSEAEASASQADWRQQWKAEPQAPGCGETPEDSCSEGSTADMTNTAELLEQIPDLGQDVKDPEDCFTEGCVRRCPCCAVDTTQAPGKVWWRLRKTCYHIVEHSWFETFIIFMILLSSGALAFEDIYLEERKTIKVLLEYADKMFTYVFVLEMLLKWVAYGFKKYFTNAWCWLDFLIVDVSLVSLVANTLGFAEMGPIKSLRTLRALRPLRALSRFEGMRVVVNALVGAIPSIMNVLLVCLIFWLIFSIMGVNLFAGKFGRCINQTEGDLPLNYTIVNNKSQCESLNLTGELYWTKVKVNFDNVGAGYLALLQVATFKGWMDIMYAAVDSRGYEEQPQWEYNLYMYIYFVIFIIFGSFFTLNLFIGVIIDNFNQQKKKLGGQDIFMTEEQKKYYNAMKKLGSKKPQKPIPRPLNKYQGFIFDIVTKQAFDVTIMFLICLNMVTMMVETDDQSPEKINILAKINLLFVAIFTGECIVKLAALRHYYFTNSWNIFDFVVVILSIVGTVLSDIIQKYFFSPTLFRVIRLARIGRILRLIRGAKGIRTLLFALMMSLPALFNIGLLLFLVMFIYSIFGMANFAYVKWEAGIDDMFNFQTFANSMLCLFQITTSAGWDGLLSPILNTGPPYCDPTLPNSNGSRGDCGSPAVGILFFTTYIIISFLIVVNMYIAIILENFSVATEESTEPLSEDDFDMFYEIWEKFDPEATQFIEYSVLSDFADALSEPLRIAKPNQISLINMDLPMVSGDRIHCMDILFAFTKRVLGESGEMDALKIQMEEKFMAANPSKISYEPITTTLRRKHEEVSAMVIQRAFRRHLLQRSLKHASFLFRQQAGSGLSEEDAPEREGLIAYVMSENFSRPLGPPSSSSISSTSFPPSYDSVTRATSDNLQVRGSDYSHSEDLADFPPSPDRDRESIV
T4 sequence (P51787 whole entry): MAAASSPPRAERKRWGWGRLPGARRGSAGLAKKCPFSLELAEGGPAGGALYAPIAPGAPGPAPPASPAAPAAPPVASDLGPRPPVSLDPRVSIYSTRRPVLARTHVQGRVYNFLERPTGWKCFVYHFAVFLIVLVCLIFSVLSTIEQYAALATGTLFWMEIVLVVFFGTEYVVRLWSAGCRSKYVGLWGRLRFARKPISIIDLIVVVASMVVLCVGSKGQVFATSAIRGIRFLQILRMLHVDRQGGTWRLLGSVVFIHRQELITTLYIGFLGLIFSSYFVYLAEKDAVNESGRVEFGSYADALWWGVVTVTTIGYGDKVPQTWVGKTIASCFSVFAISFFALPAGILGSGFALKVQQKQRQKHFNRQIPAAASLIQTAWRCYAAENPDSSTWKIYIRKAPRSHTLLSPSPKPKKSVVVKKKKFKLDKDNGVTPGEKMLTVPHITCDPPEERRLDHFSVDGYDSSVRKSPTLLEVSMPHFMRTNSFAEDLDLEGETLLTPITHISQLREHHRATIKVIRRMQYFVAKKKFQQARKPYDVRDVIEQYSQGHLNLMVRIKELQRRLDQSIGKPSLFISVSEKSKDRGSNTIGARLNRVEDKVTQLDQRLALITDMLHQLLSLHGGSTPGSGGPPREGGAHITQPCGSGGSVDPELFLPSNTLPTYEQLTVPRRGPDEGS
T2 sequence (Q12809 whole entry): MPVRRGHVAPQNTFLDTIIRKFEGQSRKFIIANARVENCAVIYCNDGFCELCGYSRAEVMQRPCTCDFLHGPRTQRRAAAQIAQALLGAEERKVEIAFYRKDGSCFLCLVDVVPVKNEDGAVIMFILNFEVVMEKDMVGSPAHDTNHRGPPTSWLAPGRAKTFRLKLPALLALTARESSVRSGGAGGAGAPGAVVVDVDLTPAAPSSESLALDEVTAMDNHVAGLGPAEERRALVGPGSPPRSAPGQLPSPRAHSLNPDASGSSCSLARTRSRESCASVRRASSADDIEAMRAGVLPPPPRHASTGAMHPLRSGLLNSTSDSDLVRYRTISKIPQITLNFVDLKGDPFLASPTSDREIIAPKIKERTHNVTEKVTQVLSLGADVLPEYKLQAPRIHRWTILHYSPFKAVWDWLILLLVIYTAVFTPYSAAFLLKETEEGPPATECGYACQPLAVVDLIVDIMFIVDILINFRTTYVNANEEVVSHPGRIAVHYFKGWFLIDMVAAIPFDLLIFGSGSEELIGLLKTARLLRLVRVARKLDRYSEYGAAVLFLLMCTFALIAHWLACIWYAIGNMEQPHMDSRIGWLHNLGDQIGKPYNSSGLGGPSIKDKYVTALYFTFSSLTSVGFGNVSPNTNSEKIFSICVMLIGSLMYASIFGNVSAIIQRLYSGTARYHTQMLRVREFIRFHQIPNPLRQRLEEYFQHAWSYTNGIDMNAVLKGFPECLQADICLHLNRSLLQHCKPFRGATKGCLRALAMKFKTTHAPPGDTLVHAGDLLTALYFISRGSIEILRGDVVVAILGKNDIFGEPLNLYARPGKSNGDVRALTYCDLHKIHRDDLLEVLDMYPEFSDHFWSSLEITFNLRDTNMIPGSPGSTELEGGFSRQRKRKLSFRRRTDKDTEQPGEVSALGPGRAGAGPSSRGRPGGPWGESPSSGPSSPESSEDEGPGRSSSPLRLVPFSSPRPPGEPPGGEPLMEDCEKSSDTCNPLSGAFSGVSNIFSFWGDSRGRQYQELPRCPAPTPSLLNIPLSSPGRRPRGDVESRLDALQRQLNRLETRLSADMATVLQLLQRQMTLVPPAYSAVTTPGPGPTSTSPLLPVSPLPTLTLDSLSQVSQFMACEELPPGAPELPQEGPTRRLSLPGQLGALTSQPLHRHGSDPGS

Consider `CC[C@H]1OC(=O)[C@H](C)[C@@H](O[C@H]2C[C@@](C)(OC)[C@@H](O)[C@H](C)O2)[C@H](C)[C@@H](O[C@@H]2O[C@H](C)C[C@H](N(C)C)[C@H]2O)[C@](C)(O)C[C@@H](C)CN(C)[C@H](C)[C@@H](O)[C@]1(C)O` [azithromycin], for which the IC50 was 612 µM on NaV1.5; 439 µM against hERG; 771 µM in assay [1]; over 1000 µM at KV7.1/minK (read-out: NaV1.5 late); over 1000 µM on Kir2.1 (read-out: NaV1.5 late); over 1000 µM on HCN4 (read-out: NaV1.5 late).

For the compound `CCN(CC)CCCC(C)Nc1ccnc2cc(Cl)ccc12` (stereo not shown) [chloroquine], the IC50 on NaV1.5 was 13.9 µM; in assay [1], 17.9 µM; in assay [2], over 300 µM; on Kir2.1 (read-out: Kir2.1) it was 4.98 µM; on HCN4 (read-out: HCN4), 96.2 µM.

Turning to `CC[C@H]1OC(=O)[C@H](C)[C@@H](O[C@H]2C[C@@](C)(OC)[C@@H](O)[C@H](C)O2)[C@H](C)[C@@H](O[C@@H]2O[C@H](C)C[C@H](N(C)C)[C@H]2O)[C@](C)(O)C[C@@H](C)C(=O)[C@H](C)[C@@H](O)[C@]1(C)O` [erythromycin], the IC50 at KV7.1/minK (read-out: NaV1.5 peak) and on HCN4 (read-out: NaV1.5 peak) was over 1000 µM in each case.

As for `CCN(CCO)CCCC(C)Nc1ccnc2cc(Cl)ccc12` (stereo not shown) [hydroxychloroquine], the IC50 at NaV1.5 is 17 µM; on hERG, 2.66 µM; in assay [1] it was 23.9 µM; in assay [2] it was over 300 µM; at Kir2.1 (read-out: NaV1.5 peak), 44.2 µM; in assay [3] it was over 300 µM.
